# Non-standard residues stand in square brackets, D forms with d. Residues, ends and D or L forms follow the SMILES beside them. ξ: configuration not given here. NEtPhe(4-F) = CCN[C@@H](Cc1ccc(F)cc1)C(=O)O; Ala(4-thiazolyl) = N[C@@H](Cc1cscn1)C(=O)O; NMePhe(4-F) = CN[C@@H](Cc1ccc(F)cc1)C(=O)O; Phe(4-Cl) = N[C@@H](Cc1ccc(Cl)cc1)C(=O)O; Phe(4-F) = N[C@@H](Cc1ccc(F)cc1)C(=O)O; NMeThr(3ξ) = CN[C@H](C(=O)O)C(C)O; NMeF = CN[C@@H](Cc1ccccc1)C(=O)O; Tle = CC(C)(C)[C@H](N)C(=O)O; NMeV = CN[C@H](C(=O)O)C(C)C; Pip = O=C(O)[C@@H]1CCCCN1; hSer = N[C@@H](CCO)C(=O)O; NMeA = CN[C@@H](C)C(=O)O; dNMeA = CN[C@H](C)C(=O)O; Abu = CC[C@H](N)C(=O)O; Nme = COCCNCC(=O)O
# How the values were obtained:
# Human MDM4 (HDM4) 1-114 = biological target: T1, Human MDM4 (HDM4) 1-114 (Homo sapiens, UniProt O15151); test: Fluorescence polarization assay 2, MDM4 (Table 4); format: binding; conditions: Table 4; fluorescence polarization; read-out: MDM4 IC50
# T1 construct: Human MDM4 (HDM4) 1-114
# T1 sequence (O15151 1-114): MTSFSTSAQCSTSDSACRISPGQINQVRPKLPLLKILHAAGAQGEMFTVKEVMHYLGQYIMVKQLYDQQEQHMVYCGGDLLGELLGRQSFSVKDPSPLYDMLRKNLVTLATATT
# Description: (§1) Compounds dissolved in DMSO were pin transferred (˜100-200 nL) to the 384 well plate containing the MDM4/p53 solution. After incubation for 60 minutes, the fluorescence polarization was read on a Molecular Devices SpectraMax plate reader equipped with a Fluorescein FP cartridge. In addition to probe alone (positive control) and probe/MDM4 (negative control), a titration of linear p53(18-26) was included on every plate as an additional control. IC50 values were fit using either Prism or Collaborative Drug Discovery.
# Human MDM2 (HDM2) 1-116 = biological target: T2, Human MDM2 (HDM2) 1-116 (Homo sapiens, UniProt Q00987); test: Fluorescence polarization assay 2, MDM2 (Table 4); format: binding; conditions: Table 4; fluorescence polarization; read-out: MDM2 IC50
# T2 construct: Human MDM2 (HDM2) 1-116
# Description: as §1, with “MDM2/p53” for “MDM4/p53”, “probe/MDM2” for “probe/MDM4”
# [1] = Pharmacokinetic parameters of Compound 35, intravenous, mice; format: in vivo; conditions: mouse, 1 mg/kg, plasma
# Description: Mice were treated intravenously with Compound 35 (1 mg/kg) and plasma was collected at various timepoints to determine pharmacokinetic parameters. The change in mean plasma concentration over time is shown in FIG. 5, and all pharmacokinetic parameters obtained are summarized in Table 2: […]
# MOLM-13 cells = test: Cellular fluorescence assay (resazurin, 72 hours); format: cell-based
# Description: MOLM-13 cells were grown in suspension in T75 flasks in RPMI medium with 10% fetal bovine serum (FBS) at 37° C. with 5% CO2. 40 μL of MOLM-13 cells were plated into columns 1-22 of black, clear bottom, 384 well plates at a density of 1,500 cells per well in PRMI with 10% FBS. Columns 23 and 24 were filled with 40 μL of media as a positive control. 100 nL of compounds dissolved in DMSO were pin transferred into columns 3-22 of the 384 well plate. Columns 1 and 2 served as negative control wells. Plates were incubated for 72 hours at 37° C. with 5% CO2. After incubation, the cells were given 10 μL of 2 mM Resazurin in RPMI with 10% FBS and incubated for 3 hours. The fluorescence intensity was read on a Molecular Devices SpectraMax i3x plate reader (Excitation wavelength=535 nm, Emission wavelength=585 nm).
# T2 sequence (Q00987 1-116): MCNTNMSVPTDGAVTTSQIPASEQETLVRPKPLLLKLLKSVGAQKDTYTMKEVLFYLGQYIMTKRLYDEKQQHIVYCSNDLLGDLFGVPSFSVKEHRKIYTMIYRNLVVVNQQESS
IC50 (Human MDM4 (HDM4) 1-114) [nM],IC50 (Human MDM2 (HDM2) 1-116) [nM],SMILES,also measured
> 150,50 to 100,"COCC[C@@H]1NC(=O)[C@H]2CCCN2C(=O)[C@H](Cc2ccccc2)N(C)C(=O)[C@H](Cc2ccc(Cl)cc2)NC(=O)[C@H](C(C)(C)C)NC(=O)[C@H](Cc2ccc(F)cc2)NC(=O)CN(CCOC)C(=O)[C@@H](C)N(C)C(=O)[C@H](Cc2cscn2)NC(=O)[C@H](C)N(C)C1=O [Compound 35, COCC[C@@H]1NC(=O)[C@H]2CCCN2C(=O)[C@H](CC2=CC=CC=C2)N(C)C(=O)[C@H](CC2=CC=C(Cl)C=C2)NC(=O)[C@@H](NC(=O)[C@H](CC2=CC=C(F)C=C2)NC(=O)CN(CCOC)C(=O)[C@@H](C)N(C)C(=O)[C@H](CC2=CSC=N2)NC(=O)[C@H](C)N(C)C1=O)C(C)(C)C] (cyclo([Ala(4-thiazolyl)][dNMeA][Nme][Phe(4-F)][Tle][Phe(4-Cl)][NMeF][dP][hSer](Me)[NMeA]))",AUC(0-inf) [1]: 1040 ng·h/mL; AUC(0-t) [1]: 1040 ng·h/mL; Cmax [1]: 3570 ng/mL; MRT inf [1]: 9 min; MRT last [1]: 7.8 min; Tmax [1]: 4.8 min; clearance [1]: 16 mL/min/kg; half-life [1]: 62.4 min; Vd ([1]; read-out: Vss): 0.14 L/kg
,,"COCC[C@@H]1NC(=O)[C@H]2CCCN2C(=O)[C@H](Cc2ccccc2)N(C)C(=O)[C@H](Cc2ccc(Cl)cc2)NC(=O)[C@H]([C@@H](C)O)NC(=O)[C@H](Cc2ccc(F)cc2)NC(=O)CN(CCOC)C(=O)[C@@H](C)N(C)C(=O)[C@H](Cc2cscn2)NC(=O)[C@H](C)N(C)C1=O [Compound 39, COCC[C@@H]1NC(=O)[C@H]2CCCN2C(=O)[C@H](CC2=CC=CC=C2)N(C)C(=O)[C@H](CC2=CC=C(Cl)C=C2)NC(=O)[C@@H](NC(=O)[C@H](CC2=CC=C(F)C=C2)NC(=O)CN(CCOC)C(=O)[C@@H](C)N(C)C(=O)[C@H](CC2=CSC=N2)NC(=O)[C@H](C)N(C)C1=O)C(C)O] (cyclo([hSer](Me)[NMeA][Ala(4-thiazolyl)][dNMeA][Nme][Phe(4-F)]T[Phe(4-Cl)][NMeF][dP]))",IC50 (MOLM-13 cells): 100 to 150 nM
100 to 150,25 to 50,"CC[C@@H]1NC(=O)[C@H](Cc2ccc(F)cc2)NC(=O)CN(CCOC)C(=O)[C@@H](C)N(C)C(=O)[C@H](Cc2cscn2)NC(=O)[C@H](C)N(C)C(=O)[C@H](CCOC)NC(=O)[C@H]2CCCN2C(=O)[C@H](Cc2ccccc2)N(C)C(=O)[C@H](Cc2ccc(Cl)cc2)NC1=O [Compound 42, CC[C@@H]1NC(=O)[C@H](CC2=CC=C(F)C=C2)NC(=O)CN(CCOC)C(=O)[C@@H](C)N(C)C(=O)[C@H](CC2=CSC=N2)NC(=O)[C@H](C)N(C)C(=O)[C@H](CCOC)NC(=O)[C@H]2CCCN2C(=O)[C@H](CC2=CC=CC=C2)N(C)C(=O)[C@H](CC2=CC=C(Cl)C=C2)NC1=O] (cyclo([Abu][Phe(4-Cl)][NMeF][dP][hSer](Me)[NMeA][Ala(4-thiazolyl)][dNMeA][Nme][Phe(4-F)]))",
100 to 150,25 to 50,"COCC[C@@H]1NC(=O)[C@H]2CCCN2C(=O)[C@H](Cc2ccccc2)N(C)C(=O)[C@H](Cc2ccc(Cl)cc2)NC(=O)[C@H](C(C)C)N(C)C(=O)[C@H](Cc2ccc(F)cc2)NC(=O)CN(CCOC)C(=O)[C@@H](C)N(C)C(=O)[C@H](Cc2cscn2)NC(=O)[C@H](C)N(C)C1=O [Compound 43, COCC[C@@H]1NC(=O)[C@H]2CCCN2C(=O)[C@H](CC2=CC=CC=C2)N(C)C(=O)[C@H](CC2=CC=C(Cl)C=C2)NC(=O)[C@H](C(C)C)N(C)C(=O)[C@H](CC2=CC=C(F)C=C2)NC(=O)CN(CCOC)C(=O)[C@@H](C)N(C)C(=O)[C@H](CC2=CSC=N2)NC(=O)[C@H](C)N(C)C1=O] (cyclo([Ala(4-thiazolyl)][dNMeA][Nme][Phe(4-F)][NMeV][Phe(4-Cl)][NMeF][dP][hSer](Me)[NMeA]))",
> 150,50 to 100,"CCN1C(=O)[C@H](Cc2ccc(Cl)cc2)NC(=O)[C@H](C(C)(C)C)NC(=O)[C@H](Cc2ccc(F)cc2)NC(=O)CN(CCOC)C(=O)[C@@H](C)N(C)C(=O)[C@H](Cc2cscn2)NC(=O)[C@H](C)N(C)C(=O)[C@H](CCOC)NC(=O)[C@H]2CCCN2C(=O)[C@@H]1Cc1ccc(F)cc1 [Compound 44, CCN1[C@@H](Cc2ccc(F)cc2)C(=O)N2CCC[C@@H]2C(=O)N[C@@H](CCOC)C(=O)N(C)[C@@H](C)C(=O)N[C@@H](Cc2cscn2)C(=O)N(C)[C@H](C)C(=O)N(CCOC)CC(=O)N[C@@H](Cc2ccc(F)cc2)C(=O)N[C@H](C(=O)N[C@@H](Cc2ccc(Cl)cc2)C1=O)C(C)(C)C] (cyclo([Ala(4-thiazolyl)][dNMeA][Nme][Phe(4-F)][Tle][Phe(4-Cl)][NEtPhe(4-F)][dP][hSer](Me)[NMeA]))",
,,"COCC[C@@H]1NC(=O)[C@H]2CCCN2C(=O)[C@H](Cc2ccc(F)cc2)N(C)C(=O)[C@H](Cc2ccc(Cl)cc2)NC(=O)[C@H](C(C)O)N(C)C(=O)[C@H](Cc2ccc(F)cc2)NC(=O)CN(CCOC)C(=O)[C@@H](C)N(C)C(=O)[C@H](Cc2cscn2)NC(=O)[C@H](C)N(C)C1=O (some centres unmarked) [Compound 45, COCC[C@@H]1NC(=O)[C@H]2CCCN2C(=O)[C@H](Cc2ccc(F)cc2)N(C)C(=O)[C@H](Cc2ccc(Cl)cc2)NC(=O)[C@H]([C@@@H](C)O)N(C)C(=O)[C@H](Cc2ccc(F)cc2)NC(=O)CN(CCOC)C(=O)[C@@H](C)N(C)C(=O)[C@H](Cc2cscn2)NC(=O)[C@H](C)N(C)C1=O] (cyclo([Ala(4-thiazolyl)][dNMeA][Nme][Phe(4-F)][NMeThr(3ξ)][Phe(4-Cl)][NMePhe(4-F)][dP][hSer](Me)[NMeA]))",IC50 (MOLM-13 cells): 50 to 100 nM
100 to 150,50 to 100,"COCC[C@@H]1NC(=O)[C@H]2CCCN2C(=O)[C@H](Cc2ccc(F)cc2)N(C)C(=O)[C@H](Cc2ccc(Cl)cc2)NC(=O)[C@@H]2CCCCN2C(=O)[C@H](Cc2ccc(F)cc2)NC(=O)CN(CCOC)C(=O)[C@@H](C)N(C)C(=O)[C@H](Cc2cscn2)NC(=O)[C@H](C)N(C)C1=O [Compound 46, COCC[C@@H]1NC(=O)[C@H]2CCCN2C(=O)[C@H](Cc2ccc(F)cc2)N(C)C(=O)[C@H](Cc2ccc(Cl)cc2)NC(=O)[C@@H]2CCCCN2C(=O)[C@H](Cc2ccc(F)cc2)NC(=O)CN(CCOC)C(=O)[C@@H](C)N(C)C(=O)[C@H](Cc2cscn2)NC(=O)[C@H](C)N(C)C1=O] (cyclo([Ala(4-thiazolyl)][dNMeA][Nme][Phe(4-F)][Pip][Phe(4-Cl)][NMePhe(4-F)][dP][hSer](Me)[NMeA]))",

SMILES,IC50 (Human MDM4 (HDM4) 1-114) [nM],IC50 (Human MDM2 (HDM2) 1-116) [nM],also measured
"COCC[C@@H]1NC(=O)[C@H]2CCCN2C(=O)[C@H](Cc2ccc(F)cc2)N(C)C(=O)[C@H](Cc2ccc(Cl)cc2)NC(=O)[C@@H]2CCCN2C(=O)[C@H](Cc2ccc(F)cc2)NC(=O)CN(CCOC)C(=O)[C@@H](C)N(C)C(=O)[C@H](Cc2cscn2)NC(=O)[C@H](C)N(C)C1=O [Compound 47, COCC[C@@H]1NC([C@H]2CCCN2C([C@@H](N(C([C@@H](NC([C@@H]3CCCN3C([C@@H](NC(CN(C([C@H](N(C([C@@H](NC([C@@H](N(C1=O)C)C)=O)Cc4ncsc4)=O)C)C)=O)CCOC)=O)Cc5ccc(F)cc5)=O)=O)Cc6ccc(Cl)cc6)=O)C)Cc7ccc(F)cc7)=O)=O] (cyclo([Ala(4-thiazolyl)][dNMeA][Nme][Phe(4-F)]P[Phe(4-Cl)][NMePhe(4-F)][dP][hSer](Me)[NMeA]))",100 to 150,25 to 50,

# — patent publication US20220411471A1, “CELL-PERMEABLE CYCLIC PEPTIDES AND USES THEREOF” (Unnatural Products Inc., priority 2019, published 2022)
